Experiments:
NZM mice [1] = experiment: Renal histopathology scoring (kidney IC-GN), NZM mice (Example 2); assay type: in vivo, mouse
Method: (§1) For histological analyses, the left kidney from each animal is removed and fixed in 10% buffered neutral formalin (EMD) for 48 hours on an orbital rocker at 25° C., then washed overnight with running dH2O and stored in 70% ethanol at 4° C. until ready to be processed. Kidney stains used for histological analyses included hematoxylin and eosin (H&E), Periodic Acid Schiff (PAS) and Trichrome stains (Wistar Institute, Philadelphia, Pa.). All 3 stained sections are used by the pathologist for scoring purposes. All histological scoring is performed blinded and by an independent board certified veterinary medical pathologist (Julie Engiles, VMD, DACVP). Multiple stains are used to determine score values. Images in FIG. 39 show worst affected area of section selected blindly by the pathologist.
(§2) Kidney IC-GN Scoring Method (Smith, Dong et al. 2007):
(§3) 1. Glomerular cellularity—Score 1-5: Null, low, moderate, high, severe
(§4) 2. Glomerular necrosis—Score 1-5: Null, low, moderate, high, severe
(§5) 3. Glomerulosclerosis—Score 1-5: Null, low, moderate, high, severe
(§6) 4. Interstitial infiltration—Score 1-5: Null, low, moderate, high, severe
(§7) 5. Tubular atrophy—Score 1-5: Null, low, moderate, high, severe
(§8) 6. Interstitial fibrosis—Score 1-5: Null, low, moderate, high, severe
(§9) 7. Vasculitis—Score 1-5: Null, low, moderate, high, severe
(§10) Specific Pathologist Definitions: • Necrosis is defined by the presence of nuclear debris/pyknosis within the glomerular tuft indicative of “necrosis.” In many samples, this is a very mild, rare finding within only a very few segments of the glomerular tuft. Also consider effacement of the glomerular tuft by PAS positive, Trichrome negative material necrosis. • Glomerular sclerosis is defined by increased fibroplasia or fibrosis within the glomerular tuft or capsule. […] Most of the vascular changes are mild and could be considered “arteriosclerosis” characterized by proliferation of the smooth muscle cells, and hyalinization of the extracellular matrix. This change may reflect hypertension secondary to glomerular pathology. In very few animals is there overt “vasculitis.” Most inflammatory changes are within the walls of the blood vessels, with little to no damage to the endothelium, and no overt hemorrhage/fibrin leakage. Many also have perivascular rims of fibroblasts.

MRL/lpr mice [2] = experiment: Spleen plasma cells by flow cytometry, MRL/lpr mice
MRL/lpr mice [3] = experiment: Splenomegaly (spleen mass), MRL/lpr mice; assay type: in vivo, mouse
Method: FIG. 5 depicts splenomegaly for MRL/lpr mice across treatment groups for the study duration. MRL/lpr mice were treated as outlined in the legend. The spleen masses for all mice that survived until the end of the experiment are graphed. Each symbol represents the spleen weight for one mouse at 25 weeks of age.
Mice are tracked on an individual basis.
Vehicle alone is provided orally twice weekly (p.o.). Both proteasome inhibitors are suspended in the vehicle solution. […] In addition, urine proteinuria is determined for all animals.
Vehicle was 3% DMSO/10% Solutol/87% PBS.

MRL/lpr mice [4] = experiment: Renal histopathology scoring (kidney IC-GN), MRL/lpr mice; assay type: in vivo, mouse
Method: as §1, with “neutral 10%” for “neutral”, “17” for “39”
as §2, §3, §4, §5, §6, §7, §8, §9, §10

NZM mice [5] = experiment: Survival, NZM lupus nephritis model, ip dosing (Example 2); assay type: in vivo, mouse
NZM mice [6] = experiment: Serum C3 complement ELISA, NZM mice (Example 2)

C[C@@H]1C[C@H]2[C@@H]3CCC4=CC(=O)C=C[C@]4(C)[C@@]3(F)[C@@H](O)C[C@]2(C)[C@@]1(O)C(=O)CO [dexamethasone, Dexamethasone, reference compound]
Kidney glomerular cellularity, percent change vs vehicle (NZM mice [1]; G5 1.5 mg/kg ip, 3× wk): −38%
Kidney glomerular necrosis, percent change vs vehicle (NZM mice [1]; G5 1.5 mg/kg ip, 3× wk): −16%
Kidney glomerulosclerosis, percent change vs vehicle (NZM mice [1]; G5 1.5 mg/kg ip, 3× wk): −17%
Kidney interstitial fibrosis, percent change vs vehicle (NZM mice [1]; G5 1.5 mg/kg ip, 3× wk): −36%
Kidney interstitial infiltration, percent change vs vehicle (NZM mice [1]; G5 1.5 mg/kg ip, 3× wk): −36%
Kidney tubular atrophy, percent change vs vehicle (NZM mice [1]; G5 1.5 mg/kg ip, 3× wk): −25%
Kidney vasculitis, percent change vs vehicle (NZM mice [1]; G5 1.5 mg/kg ip, 3× wk): −40%
p, glomerular cellularity (GC) vs G8 NZW/LacJ non-diseased (NZM mice [1]; G6 1.5 mg/kg 1× wk): p < 0.01
p, glomerular necrosis (GN) vs G5 CTX 50 mg/kg 1× wk (NZM mice [1]; G6 1.5 mg/kg 1× wk): p < 0.05
p, glomerular necrosis (GN) vs G8 NZW/LacJ non-diseased (NZM mice [1]; G6 1.5 mg/kg 1× wk): p < 0.01
p, glomerular necrosis (GN) vs G9 NZM diseased baseline (NZM mice [1]; G6 1.5 mg/kg 1× wk): p < 0.05
p, glomerulosclerosis (GS) vs G4 Bortezomib 0.3 mg/kg 2× wk (NZM mice [1]; G6 1.5 mg/kg 1× wk): p < 0.001
p, glomerulosclerosis (GS) vs G5 CTX 50 mg/kg 1× wk (NZM mice [1]; G6 1.5 mg/kg 1× wk): p < 0.05
p, glomerulosclerosis (GS) vs G8 NZW/LacJ non-diseased (NZM mice [1]; G6 1.5 mg/kg 1× wk): p < 0.001
p, glomerulosclerosis (GS) vs G9 NZM diseased baseline (NZM mice [1]; G6 1.5 mg/kg 1× wk): p < 0.05
p, interstitial fibrosis (IF) vs G5 CTX 50 mg/kg 1× wk (NZM mice [1]; G6 1.5 mg/kg 1× wk): p < 0.05
p, interstitial fibrosis (IF) vs G8 NZW/LacJ non-diseased (NZM mice [1]; G6 1.5 mg/kg 1× wk): p < 0.05
p, interstitial infiltration (II) vs G4 Bortezomib 0.3 mg/kg 2× wk (NZM mice [1]; G6 1.5 mg/kg 1× wk): p < 0.01
p, interstitial infiltration (II) vs G5 CTX 50 mg/kg 1× wk (NZM mice [1]; G6 1.5 mg/kg 1× wk): p < 0.05
p, interstitial infiltration (II) vs G8 NZW/LacJ non-diseased (NZM mice [1]; G6 1.5 mg/kg 1× wk): p < 0.05
p, tubular atrophy (TA) vs G4 Bortezomib 0.3 mg/kg 2× wk (NZM mice [1]; G6 1.5 mg/kg 1× wk): p < 0.01
p, tubular atrophy (TA) vs G5 CTX 50 mg/kg 1× wk (NZM mice [1]; G6 1.5 mg/kg 1× wk): p < 0.05
p, tubular atrophy (TA) vs G8 NZW/LacJ non-diseased (NZM mice [1]; G6 1.5 mg/kg 1× wk): p < 0.01
EOS plasma cells, percent change vs vehicle (MRL/lpr mice [2]; G6: 1.5 mg/kg ip, 3× wk): +25%
EOS spleen mass, percent change vs vehicle (MRL/lpr mice [3]; G6: 1.5 mg/kg ip, 3× wk): −71%
EOS glomerular cellularity, percent change vs vehicle (MRL/lpr mice [4]; G6: 1.5 mg/kg ip, 3× wk): −15%
EOS glomerular necrosis, percent change vs vehicle (MRL/lpr mice [4]; G6: 1.5 mg/kg ip, 3× wk): −25%
EOS glomerulosclerosis, percent change vs vehicle (MRL/lpr mice [4]; G6: 1.5 mg/kg ip, 3× wk): −27%
EOS interstitial infiltration, percent change vs vehicle (MRL/lpr mice [4]; G6: 1.5 mg/kg ip, 3× wk): −50%
EOS vasculitis, percent change vs vehicle (MRL/lpr mice [4]; G6: 1.5 mg/kg ip, 3× wk): −18%
Kidney EOS interstitial fibrosis, percent change vs vehicle (MRL/lpr mice [4]; G6: 1.5 mg/kg ip, 3× wk): −27%
Kidney EOS tubular atrophy, percent change vs vehicle (MRL/lpr mice [4]; G6: 1.5 mg/kg ip, 3× wk): −23%
EOS survival, percent live mice from original number (NZM mice [5]; G5 1.5 mg/kg ip, 3× wk): 10%
Serum C3 complement AUC, percent change vs vehicle (NZM mice [6]; G5 1.5 mg/kg ip, 3× wk): 45%
p, serum C3 complement levels vs G6 Bortezomib 0.3 mg/kg 2× wk ip (NZM mice [6]; G8 1.5 mg/kg 3× wk ip): p < 0.05
p, serum C3 complement levels vs G7 CTX 50 mg/kg 1× wk ip (NZM mice [6]; G8 1.5 mg/kg 3× wk ip): p < 0.01

CC(C)C[C@H](NC(=O)[C@H](Cc1ccccc1)NC(=O)c1cnccn1)B(O)O [bortezomib, reference compound]
Kidney glomerular cellularity, percent change vs vehicle (NZM mice [1]; G3 0.3 mg/kg ip, 1× wk): −12%
Kidney glomerular necrosis, percent change vs vehicle (NZM mice [1]; G3 0.3 mg/kg ip, 1× wk): 18%
Kidney glomerulosclerosis, percent change vs vehicle (NZM mice [1]; G3 0.3 mg/kg ip, 1× wk): 8%
Kidney interstitial fibrosis, percent change vs vehicle (NZM mice [1]; G3 0.3 mg/kg ip, 1× wk): −5%
Kidney interstitial infiltration, percent change vs vehicle (NZM mice [1]; G3 0.3 mg/kg ip, 1× wk): −15%
Kidney tubular atrophy, percent change vs vehicle (NZM mice [1]; G3 0.3 mg/kg ip, 1× wk): −6%
Kidney vasculitis, percent change vs vehicle (NZM mice [1]; G3 0.3 mg/kg ip, 1× wk): −21%
p, interstitial infiltration (II) vs G7 Vehicle (NZM mice [1]; G4 0.3 mg/kg 2× wk): p < 0.05
Kidney glomerular cellularity, percent change vs vehicle (NZM mice [1]; G4 0.3 mg/kg ip, 2× wk): −21%
Kidney glomerular necrosis, percent change vs vehicle (NZM mice [1]; G4 0.3 mg/kg ip, 2× wk): 3%
Kidney glomerulosclerosis, percent change vs vehicle (NZM mice [1]; G4 0.3 mg/kg ip, 2× wk): −29%
Kidney interstitial fibrosis, percent change vs vehicle (NZM mice [1]; G4 0.3 mg/kg ip, 2× wk): −22%
Kidney interstitial infiltration, percent change vs vehicle (NZM mice [1]; G4 0.3 mg/kg ip, 2× wk): −44%
Kidney tubular atrophy, percent change vs vehicle (NZM mice [1]; G4 0.3 mg/kg ip, 2× wk): −32%
Kidney vasculitis, percent change vs vehicle (NZM mice [1]; G4 0.3 mg/kg ip, 2× wk): −14%
interstitial infiltration reduction vs vehicle (NZM mice [1]; bortezomib treatment group (twice weekly dose)): 44%
decrease in renal histopathology score over several parameters vs vehicle (NZM mice [1]; mouse, in vivo): 6-14%
EOS plasma cells, percent change vs vehicle (MRL/lpr mice [2]; G4: 0.5 mg/kg iv, 1× wk): −67%
EOS plasma cells, percent change vs vehicle (MRL/lpr mice [2]; G5: 0.3 mg/kg iv, 2× wk): −33%
spleen plasma cells decrease vs vehicle (MRL/lpr mice [2]; Group 4): 66%
spleen plasma cells decrease vs vehicle (MRL/lpr mice [2]; Group 5): 33%
EOS spleen mass, percent change vs vehicle (MRL/lpr mice [3]; G4: 0.5 mg/kg iv, 1× wk): −68%
EOS spleen mass, percent change vs vehicle (MRL/lpr mice [3]; G5: 0.3 mg/kg iv, 2× wk): −44%
EOS glomerular cellularity, percent change vs vehicle (MRL/lpr mice [4]; G4: 0.5 mg/kg iv, 1× wk): −31%
EOS glomerular necrosis, percent change vs vehicle (MRL/lpr mice [4]; G4: 0.5 mg/kg iv, 1× wk): −28%
EOS glomerulosclerosis, percent change vs vehicle (MRL/lpr mice [4]; G4: 0.5 mg/kg iv, 1× wk): −42%
EOS interstitial infiltration, percent change vs vehicle (MRL/lpr mice [4]; G4: 0.5 mg/kg iv, 1× wk): −47%
EOS vasculitis, percent change vs vehicle (MRL/lpr mice [4]; G4: 0.5 mg/kg iv, 1× wk): −42%
Kidney EOS interstitial fibrosis, percent change vs vehicle (MRL/lpr mice [4]; G4: 0.5 mg/kg iv, 1× wk): −46%
Kidney EOS tubular atrophy, percent change vs vehicle (MRL/lpr mice [4]; G4: 0.5 mg/kg iv, 1× wk): −50%
EOS glomerular cellularity, percent change vs vehicle (MRL/lpr mice [4]; G5: 0.3 mg/kg iv, 2× wk): −15%
EOS glomerular necrosis, percent change vs vehicle (MRL/lpr mice [4]; G5: 0.3 mg/kg iv, 2× wk): −25%
EOS glomerulosclerosis, percent change vs vehicle (MRL/lpr mice [4]; G5: 0.3 mg/kg iv, 2× wk): −18%
EOS interstitial infiltration, percent change vs vehicle (MRL/lpr mice [4]; G5: 0.3 mg/kg iv, 2× wk): −39%
EOS vasculitis, percent change vs vehicle (MRL/lpr mice [4]; G5: 0.3 mg/kg iv, 2× wk): −21%
Kidney EOS interstitial fibrosis, percent change vs vehicle (MRL/lpr mice [4]; G5: 0.3 mg/kg iv, 2× wk): −27%
Kidney EOS tubular atrophy, percent change vs vehicle (MRL/lpr mice [4]; G5: 0.3 mg/kg iv, 2× wk): −27%
maximum reduction of renal interstitial infiltration vs vehicle (MRL/lpr mice [4]; bortezomib groups): 47%
decrease in average renal pathology score vs vehicle (MRL/lpr mice [4]; treated weekly with bortezomib): 1.68 fold
EOS survival, percent live mice from original number (NZM mice [5]; G3 0.3 mg/kg ip, 1× wk): 58%
EOS survival, percent live mice from original number (NZM mice [5]; G4 0.3 mg/kg ip, 2× wk): 75%
mice still alive at day 56 (NZM mice [5]; both treatment groups of the substance): 75%
Serum C3 complement AUC, percent change vs vehicle (NZM mice [6]; G3 0.3 mg/kg ip, 1× wk): 8%
Serum C3 complement AUC, percent change vs vehicle (NZM mice [6]; G4 0.3 mg/kg ip, 2× wk): −11%

Source: patent US9340559B2, “Proteasome inhibitor delanzomib for use in the treatment of lupus” (Cephalon, Inc., priority 2011, dated 2016)
